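Tested at 5 concentrations; 48 h exposure; 96-well plates; endpoints linearly interpolated, else capped at highest concentration. The concentration for 50% growth inhibition is given as GI50. TGI denotes the concentration required for complete inhibition of growth.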
Key:
Assay in all cases: NCI tumour cell line growth inhibition, 48 h
[1] = tested on: KM20L2 colon
[2] = tested on: LXFL 529 NSCLC
[3] = tested on: M19-MEL melanoma
[4] = tested on: RXF-631 renal
[5] = tested on: SNB-78 CNS
[6] = tested on: HOP-18 NSCLC
[7] = tested on: DMS 273 small cell lung
[8] = tested on: DMS 114 small cell lung
[9] = tested on: SN12K1 renal
[10] = tested on: P388/ADR leukemia
[11] = tested on: P388 leukemia

Compound	TGI [1]	TGI [2]	TGI [3]	TGI [4]	TGI [5]	TGI [6]	TGI [7]	TGI [8]	GI50 [1]	GI50 [2]	GI50 [3]	GI50 [5]	GI50 [6]	GI50 [7]	GI50 [8]	TGI [9]	TGI [10]	TGI [11]
COc1ccc(/C(Cl)=C(\C=O)c2ccc(OC)cc2)cc1	> 100 µM	> 100 µM	> 100 µM	> 100 µM	> 100 µM	> 100 µM	> 100 µM	> 100 µM	–	–	–	–	–	–	–	–	–	–
COc1ccc2c(c1)CCCN2CCCCCCCCCCN(CCC(C)C)CCC(C)C	23.1 µM	21.8 µM	30.7 µM	27.3 µM	38.1 µM	24.7 µM	23.2 µM	19.5 µM	–	–	–	–	–	–	–	–	–	–
N=C1C(=N)c2ccccc2-c2ccccc21.N=C1C(=N)c2ccccc2-c2ccccc21.N=C1C(=N)c2ccccc2-c2ccccc21.[Cl-].[Ru+2]	13.2 µM	3.08 µM	2.86 µM	–	3.88 µM	7.76 µM	5.45 µM	3.07 µM	5.37 µM	1.61 µM	1.46 µM	1.65 µM	3.14 µM	2.15 µM	1.63 µM	–	–	–
O=P1(c2ccccc2)Nc2ccccc2SSc2ccccc2N1	33.7 µM	–	34.4 µM	–	56.3 µM	36.6 µM	33.7 µM	43 µM	–	–	–	–	–	–	–	30.7 µM	31.2 µM	> 38.6 µM
CCCOC(=O)CNC(=O)OC(C)(C)C	> 100 µM	> 100 µM	> 100 µM	> 100 µM	> 100 µM	> 100 µM	> 100 µM	> 100 µM	–	–	–	–	–	–	–	–	–	–
Cc1cccc2c1Sc1ccccc1C2NC(=O)CCN(C)C (stereo not given)	> 100 µM	> 100 µM	> 100 µM	–	> 100 µM	–	> 100 µM	> 100 µM	–	–	–	–	–	–	–	–	–	–
Nc1n[nH]c(=O)c2c1c(I)cn2C1OC(CO)C(O)C1O (stereo not given)	> 100 µM	> 100 µM	–	7.36 µM	6.8 µM	> 100 µM	2.63 µM	6.62 µM	–	–	–	–	–	–	–	–	–	–
CN(C)CCNC(=O)c1cccc2ccc(-c3ccc(F)cc3)nc12	20.4 µM	–	15.9 µM	–	31.4 µM	54.1 µM	11.8 µM	17.8 µM	–	–	–	–	–	–	–	12.2 µM	5.17 µM	3.66 µM
O=C(Nc1ccc([N+](=O)[O-])cc1[N+](=O)[O-])C(=O)C(C(=O)c1ccc2ccccc2c1)C1OC(=O)c2ccccc21 (stereo not given)	61.9 µM	26 µM	29.6 µM	66.3 µM	82.5 µM	–	61.4 µM	45.1 µM	–	–	–	–	–	–	–	–	–	–
COc1cc(/C=C/C(=O)Oc2ccc(NC(C)=O)cc2)ccc1C(=O)O/C=C/c1ccccc1	> 100 µM	–	> 100 µM	–	> 100 µM	> 100 µM	> 100 µM	> 100 µM	–	–	–	–	–	–	–	> 100 µM	> 100 µM	> 100 µM
